Measurements from patent publication US4198415A, “Prolactin inhibiting octahydro pyrazolo[3,4-g]quinolines” (Eli Lilly and Company, priority 1979, dated 1980).
Where a name gives a salt, the structure may show the parent alone.

Columns and labels:
[1] = system: 6-hydroxydopamine-lesioned rats; assay: turning behavior in 6-hydroxydopamine-lesioned rats (rat turning test, Parkinsonism); format: in vivo; details: intraperitoneal; for Average Number of Turns/rat: first 15 minutes after end of latency period
Protocol: In this test, nigroneostriatal-lesioned rats are employed, as prepared by the procedure of Ungerstedt and Arbuthnott, Brain Res, 24, 485 (1970). A compound having dopamine agonist activity causes the rats to turn in circles contralateral to the side of the lesion. After a latency period, which varies from compound to compound, the number of turns is counted over a 15-minute period.
The compounds were dissolved in water and the aqueous solution injected into the rat by the intraperitoneal route at dose levels of 1 mg/kg. and 100 mcg/kg.

prolactin = assay: inhibition of prolactin secretion in reserpine-treated male rats (serum prolactin); format: in vivo, rat (Sprague-Dawley); details: intraperitoneal, one hour after treatment, reserpine-pretreated rats
Protocol: Adult male rats of the Sprague-Dawley strain weighing about 200 g. were housed in an air-conditioned room with controlled lighting (lights on 6 a.m.-8 p.m.) and fed lab chow and water ad libitum. Each rat received an intraperitoneal injection of 2.0 mg. of reserpine in aqueous suspension 18 hours before administration of the test drug. The purpose of the reserpine was to keep prolactin levels uniformly elevated. The compounds under test were dissolved in 10 percent ethanol, and were injected intraperitoneally at doses of 50 mcg/kg and 0.5 and 5 mg/kg. Each compound was administered at each dose level to a group of 10 rats, and a control group of 10 intact males received an equivalent amount of 10 percent ethanol. One hour after treatment, all rats were killed by decapitation, and 150 μl aliquots of serum were assayed for prolactin.

[2] = intraperitoneal lethality (LD50); format: in vivo
Protocol: In using the compounds of this invention to inhibit prolactin secretion or to treat Parkinson's syndrome or for other pharmacologic action, a compound according to Formula Ia or Ib above in which R is C1 -C3 alkyl or allyl and R^1 is H or CH2 X where X is OCH3, SCH3, SO2 CH3, CN or CONH2, or a salt thereof with a pharmaceutically-acceptable acid, is administered to a subject suffering from Parkinsonism or in need of having his or her prolactin level reduced in an amount effective to treat Parkinsonism or to reduce prolactin. Oral administration is preferred. If parenteral administration is used, the injection is preferably by the subcutaneous route using an appropriate pharmaceutical formulation. […] In particular, with intravenous or intramuscular administration, a water soluble pharmaceutically-acceptable salt is employed. For oral administration, the compound either as the free base or in the form of a salt thereof, can also be mixed with standard pharmaceutical excipients and loaded into empty telescoping gelatin capsules or pressed into tablets. The oral dosage range is from about 0.01 to 10 mg./kg. of mammalian weight and the parenteral dose range from about 0.0025 to 2.5 mg./kg.

SMILES | % of Rats Exhibiting Turning Behavior ([1]; 1 mg./kg.) | Average Number of Turns/rat ([1]; 1 mg./kg.) | % of Rats Exhibiting Turning Behavior ([1]; 100 mcg./kg.) | Average Number of Turns/rat ([1]; 100 mcg./kg.) | Percent Prolactin Inhibition (prolactin; 0.5 mg/kg) | Percent Prolactin Inhibition (prolactin; 5 mg/kg) | other results
CCCN1CC(CSC)CC2Cc3n[nH]cc3CC21 (mixture of isomers) [trans-dl-5-n-Propyl-7-methylmercaptomethyl-4,4a,5,6,7,8,8a,9-octahydro-1H and 2H-pyrazolo[3,4-g]quinoline dihydrochloride] | 100% | 81 turns/rat | 50% | 67 turns/rat |  |  | 
CCCN1CC(CSC)CC2Cc3n[nH]cc3CC21 (mixture of isomers) [trans-dl-5-n-Propyl-7-methylmercaptomethyl-4,4a,5,6,7,8,8a,9-octahydro-1H and 2H-pyrazolo[3,4-g]quinoline] |  |  |  |  | 48% | 73% | 
C=CCN1CCC[C@H]2Cc3n[nH]cc3C[C@@H]21 (relative stereo) [Trans-dl-5-allyl-4,4a,5,6,7,8,8a,9-octahydro-2-H(and 1H)-pyrazolo[3,4-g]quinoline dihydrochloride] | 100% | 165 turns/rat | 0% | 0 turns/rat |  |  | 
CN1CCC[C@H]2Cc3n[nH]cc3C[C@@H]21 (relative stereo) [trans-dl-5-methyl-4,4a,5,6,7,8,8a,9-octahydro-1H-(and 2H)-pyrazolo[3,4-g]quinoline dihydrochlorides] |  |  |  |  | 42% | 84% | 
CCCN1CCC[C@H]2Cc3[nH]ncc3C[C@@H]21 (relative stereo) [trans-dl-5-n-propyl-4,4a,5,6,7,8,8a,9-octahydro-1H and 2H-pyrazolo[3,4-g]quinoline dihydrochloride] |  |  |  |  |  |  | LD50 ([2]; in vivo, ip, intraperitoneal): 100 to 300 mg/kg; deaths ([2]; intraperitoneal dosages of 300 mg./kg.): fatal; deaths ([2]; intraperitoneal dosages of 10-100 mg./kg.): no deaths
